As a reminder, the TGI is the concentration at which net growth stops.

Test systems include HOP-62 NSCLC; SR leukemia; OVCAR-4 ovarian; TK-10 renal; UO-31 renal; PC-3 prostate; NCI/ADR-RES ovarian; U251 CNS; MDA-MB-435; HS 578T breast; M14 melanoma.
What all share (test): DTP human tumour cell line panel, 48 h

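Method: 48-hour compound exposure of cells in 96-well plates, five concentrations, linear interpolation of endpoints. At the TGI there is no net growth.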

Regarding `C#CC(O)/C=C/CCCCCCC#CC/C=C\CC#CCCCCCCCCC(O)C#C` (centres undefined), the TGI was 12 µM in the test on HOP-62 NSCLC; over 22 µM with SR leukemia; 15.7 µM in the test on OVCAR-4 ovarian; 28.2 µM in the test on TK-10 renal; 1.41 µM with UO-31 renal; 31.6 µM in the test on PC-3 prostate. The concentration for total growth inhibition (TGI) with NCI/ADR-RES ovarian is 10.2 µM; with U251 CNS, over 55.8 µM; in the test on MDA-MB-435, 7.43 µM; in the test with HS 578T breast it was 38.3 µM.

Regarding `O=C(/C(=C\I)c1ccccc1)c1ccccc1`, the TGI in the test on HOP-62 NSCLC was 13.7 µM; with M14 melanoma, 30.5 µM; in the test on SR leukemia, 41 µM; in the test on OVCAR-4 ovarian, 17.7 µM; in the test on TK-10 renal it was 29.8 µM; with UO-31 renal it was 20.2 µM. Further, the TGI in the test on PC-3 prostate is 7.38 µM; in the test on NCI/ADR-RES ovarian, 44.1 µM; in the test on U251 CNS, 9.69 µM; in the test with MDA-MB-435, 26.5 µM; in the test on HS 578T breast, 19.1 µM.

`O=C1CSC(c2cccc(Cl)c2)N1c1ccc(-c2ccc(-n3c(-c4ccccc4)nc4ccccc4c3=O)cc2)cc1` (centres undefined): the concentration for total growth inhibition (TGI) is over 100 µM in the test with HOP-62 NSCLC; over 100 µM in the test with M14 melanoma; over 100 µM in the test with SR leukemia; over 100 µM with OVCAR-4 ovarian; over 100 µM in the test on TK-10 renal; 84.1 µM in the test with UO-31 renal. The TGI in the test with PC-3 prostate, in the test on NCI/ADR-RES ovarian, with U251 CNS, in the test with MDA-MB-435 and with HS 578T breast was over 100 µM throughout.

Turning to `Br[C@@H]1[C@H]2c3nc4ccccc4nc3[C@@H]1C[C@H]2Br`, the TGI in the test on HOP-62 NSCLC, in the test on M14 melanoma, with SR leukemia, in the test on OVCAR-4 ovarian, in the test with TK-10 renal and with UO-31 renal was over 100 µM in each case. The TGI in the test on PC-3 prostate, in the test on NCI/ADR-RES ovarian, with U251 CNS, with MDA-MB-435 and in the test on HS 578T breast was over 100 µM each time.

Consider `COc1cc2c(/C=C3/C(=O)N(C)c4ccc(O)cc43)c(Cl)[nH]c2cc1C`, for which the TGI stood at 3.94 µM in the test with HOP-62 NSCLC; 13.1 µM in the test on M14 melanoma; 1.23 µM in the test on SR leukemia; 21.6 µM with OVCAR-4 ovarian; 20.7 µM with TK-10 renal; 24.5 µM in the test with UO-31 renal. Besides, the TGI in the test with PC-3 prostate came out at 20.8 µM; in the test with NCI/ADR-RES ovarian it was 5.59 µM; with U251 CNS it was 17.6 µM; in the test with MDA-MB-435, 0.124 µM; with HS 578T breast, 28.9 µM.

As for `CCN1CCC(CNC(=O)c2ccc(N)cc2)N1CC` (centres undefined), the TGI with HOP-62 NSCLC, in the test with M14 melanoma, in the test with SR leukemia, in the test on OVCAR-4 ovarian, with TK-10 renal and in the test on UO-31 renal was over 100 µM in each case. The TGI in the test with PC-3 prostate, in the test on NCI/ADR-RES ovarian, with U251 CNS, in the test on MDA-MB-435 and in the test on HS 578T breast was over 100 µM throughout.

As for `C[C@]12CC(c3ccccc3O1)C(C(=O)Nc1nc(C34CC5CC(CC(C5)C3)C4)cs1)C(=O)N2` (some centres undefined), the TGI in the test on HOP-62 NSCLC, with M14 melanoma, in the test on SR leukemia, in the test with OVCAR-4 ovarian, in the test on PC-3 prostate and in the test on NCI/ADR-RES ovarian was over 100 µM in each case. The TGI in the test on U251 CNS, in the test with MDA-MB-435 and in the test with HS 578T breast was over 100 µM in each case.

`COC(=O)C1(SC)C2CCC3C2CCC31` (centres undefined): the TGI in the test on HOP-62 NSCLC, with M14 melanoma, in the test on SR leukemia, with OVCAR-4 ovarian, in the test on UO-31 renal and in the test with PC-3 prostate was over 100 µM throughout. Further, the TGI in the test with NCI/ADR-RES ovarian, in the test on U251 CNS, in the test with MDA-MB-435 and with HS 578T breast was over 100 µM throughout.

On to `CCOC(=O)c1c(SC(=O)c2ccc(OC)cc2)n(-c2ccccc2)c(=S)n(-c2ccccc2)c1=O`, for which the TGI with HOP-62 NSCLC was over 100 µM; in the test with M14 melanoma it was 83.2 µM; in the test on SR leukemia, over 100 µM; with OVCAR-4 ovarian, over 100 µM; with TK-10 renal it was over 100 µM; in the test with PC-3 prostate, over 100 µM. Moreover, the TGI in the test on NCI/ADR-RES ovarian, in the test with U251 CNS, with MDA-MB-435 and in the test with HS 578T breast was over 100 µM throughout.

Consider `Nc1nc(Cl)c(Cl)c(NCC2(O)CCC2)n1`, for which the TGI in the test on HOP-62 NSCLC is over 100 µM; in the test on SR leukemia it was over 100 µM; with OVCAR-4 ovarian, 69 µM; in the test on TK-10 renal it was over 100 µM; in the test with UO-31 renal it was over 100 µM; with PC-3 prostate, over 100 µM. The TGI in the test on NCI/ADR-RES ovarian, with U251 CNS, in the test on MDA-MB-435 and with HS 578T breast was over 100 µM in each case.

As to `CCCCOC(=O)C1CC[C@H]2[C@@H]3CCc4cc(OC(=O)c5cccc6c(=O)c7ccccc7[nH]c56)ccc4[C@H]3CC[C@]12C` (some centres undefined), the TGI worked out at 16.4 µM in the test with HOP-62 NSCLC; 20.5 µM in the test with M14 melanoma; 14.5 µM in the test with OVCAR-4 ovarian; 14.7 µM in the test on TK-10 renal; 14.9 µM with UO-31 renal; 15.6 µM in the test with PC-3 prostate. For the same molecule, the TGI in the test with NCI/ADR-RES ovarian was determined as 24.3 µM; with U251 CNS it was 18.7 µM; with MDA-MB-435, 18 µM; in the test with HS 578T breast it was 39.7 µM.

`O=C(O)c1nc2ccc(C(F)(F)F)cc2nc1Nc1ccc(F)cc1`: the TGI was 34.7 µM in the test with HOP-62 NSCLC; 36.8 µM in the test with SR leukemia; over 100 µM in the test on OVCAR-4 ovarian; over 100 µM in the test on TK-10 renal; 24.6 µM in the test with UO-31 renal; 48 µM in the test on PC-3 prostate. The TGI is 84.7 µM with NCI/ADR-RES ovarian, over 100 µM in the test on U251 CNS, 44.7 µM with MDA-MB-435 and 96.4 µM with HS 578T breast.

As for `Cn1cc(S(=O)(=O)NC(=O)Nc2ccc(Cl)cc2)c(=O)c2ccc(F)cc21`, the TGI with HOP-62 NSCLC, in the test with SR leukemia, with OVCAR-4 ovarian, in the test on TK-10 renal, with UO-31 renal and in the test with PC-3 prostate was over 100 µM each time. Further, the concentration for total growth inhibition (TGI) in the test on NCI/ADR-RES ovarian, with U251 CNS, with MDA-MB-435 and in the test with HS 578T breast was over 100 µM in each case.

Values taken from PubChem BioAssay (NCI).
